The numbers were not newly measured in paper PMC9034292 (The Journal of Biological Chemistry, 2022), which cites them from elsewhere.

In data set [1] the test system is HBV RNase H.
In data set [2] the test system is HIV-1 RT–associated RNase H.
The conditions of data set [3]: one divalent cation-coordinating ion.

With `CC(C)c1ccc(O)c(=O)c(O)c1` [β-thujaplicinol], in data set [1], the “Inhibition of HBV RNase H” value is recorded as “inhibits”. In addition, in data set [2], the “Inhibition of HIV RNase H” value is reported as “inhibits” and the “Manner of inhibition of HIV-1 RT–associated RNase H” value was “reversible noncompetitive”.

For the molecule dihydroxytropylium ion, in data set [3], the Kd is 150 µM and the “logK (stability constant)” value is on record as 3.82.

Broadly, the Kd is the free concentration of one partner at which half of the binding sites on the other are occupied at equilibrium, for simple one-to-one binding.
